# Data published in ChEMBL document CHEMBL5113392, “Novel hybrid pyrrolidinedione-thiazolidinones as potential anticancer agents: Synthesis and biological evaluation” (Eur J Med Chem, 2022).
# Calls of active or inactive are those of the source. The rule behind the calls is not given here.
# Experiments:
# UACC-62 = assay: Anticancer activity against human UACC-62 cells assessed as growth inhibition incubated for 48 hrs by SRB assay; assay type: functional
# A549 [1] = assay: Anticancer activity against human A549 cells assessed as lethality incubated for 48 hrs by SRB assay; assay type: functional; conditions: read-out: LC50 (the source's name)
# HL-60 [2] = assay: Anticancer activity against human HL-60 cells assessed as growth inhibition incubated for 48 hrs by SRB assay; assay type: functional
# SK-MEL-2 = assay: Anticancer activity against human SK-MEL-2 cells assessed as lethality incubated for 48 hrs by SRB assay; assay type: functional; conditions: read-out: LC50 (the source's name)
# OVCAR-3 = assay: Anticancer activity against human OVCAR-3 cells assessed as growth inhibition incubated for 48 hrs by SRB assay; assay type: functional
# NCI-H522 = assay: Anticancer activity against human NCI-H522 cells assessed as growth inhibition incubated for 48 hrs by SRB assay; assay type: functional
# HCC 2998 = assay: Anticancer activity against human HCC 2998 cells assessed as total growth inhibition incubated for 48 hrs by SRB assay; assay type: functional
# SN12C = assay: Anticancer activity against human SN12C cells assessed as lethality incubated for 48 hrs by SRB assay; assay type: functional; conditions: read-out: LC50 (the source's name)
# MDA-MB-231 [3] = assay: Anticancer activity against human MDA-MB-231 cells assessed as growth inhibition incubated for 48 hrs by SRB assay; assay type: functional
# Jurkat [4] = assay: Induction of morphological changes in human Jurkat cells assessed as plasma membrane blebbing incubated for 24 hrs by Hoechst 33258 and propidium iodide staining based fluorescence microscopy; assay type: functional, cell-based
# SF-268 = assay: Anticancer activity against human SF-268 cells assessed as growth inhibition incubated for 48 hrs by SRB assay; assay type: functional
# MOLT-4 = assay: Anticancer activity against human MOLT-4 cells assessed as growth inhibition incubated for 48 hrs by SRB assay; assay type: functional
# HT-29 = assay: Anticancer activity against human HT-29 cells assessed as growth inhibition incubated for 48 hrs by SRB assay; assay type: functional
# HCT-116 = assay: Anticancer activity against human HCT-116 cells assessed as total growth inhibition incubated for 48 hrs by SRB assay; assay type: functional
# Malme-3M [5] = assay: Anticancer activity against human Malme-3M cells assessed as growth inhibition incubated for 48 hrs by SRB assay; assay type: functional
# UACC-257 = assay: Anticancer activity against human UACC-257 cells assessed as growth inhibition incubated for 48 hrs by SRB assay; assay type: functional
# HOP-62 = assay: Anticancer activity against human HOP-62 cells assessed as total growth inhibition incubated for 48 hrs by SRB assay; assay type: functional
# UO-31 [6] = assay: Anticancer activity against human UO-31 cells assessed as growth inhibition incubated for 48 hrs by SRB assay; assay type: functional
# RXF 393 = assay: Anticancer activity against human RXF 393 cells assessed as total growth inhibition incubated for 48 hrs by SRB assay; assay type: functional
# Jurkat [7] = assay: Induction of morphological changes in human Jurkat cells assessed as change in cell shape incubated for 24 hrs by Hoechst 33258 and propidium iodide staining based fluorescence microscopy; assay type: functional
# TK-10 [8] = assay: Anticancer activity against human TK-10 cells assessed as lethality incubated for 48 hrs by SRB assay; assay type: functional; conditions: read-out: LC50 (the source's name)
# COLO 205 = assay: Anticancer activity against human COLO 205 cells assessed as growth inhibition incubated for 48 hrs by SRB assay; assay type: functional
# [9] = Selectivity index, ratio of GI50 for human HaCaT cells to GI50 for human HCT116-p53-null cells; assay type: toxicity; conditions: HaCaT cells versus HCT116-p53-null cells, read-out: RatioGI50
# Lymphocyte = assay: Induction of morphological changes in mitogen activated human peripheral blood lymphocytes assessed as increase in necrotic cells incubated for 24 hrs by Hoechst 33258 and propidium iodide staining based fluorescence microscopy; assay type: toxicity, cell-based
# [10] = Cytotoxicity against mitogen activated human peripheral blood lymphocytes assessed as cell growth inhibition incubated for 48 hrs by MTT assay; assay type: toxicity, cell-based, Lymphocyte
# NCI/ADR-RES = assay: Anticancer activity against human NCI/ADR-RES cells assessed as lethality incubated for 48 hrs by SRB assay; assay type: functional; conditions: read-out: LC50 (the source's name)
# [11] = Selectivity index, ratio of GI50 for human HaCaT cells to GI50 for human Jurkat cells; assay type: toxicity; conditions: HaCaT cells versus Jurkat cells, read-out: RatioGI50
# MDA-MB-231 [12] = assay: Anticancer activity against human MDA-MB-231 cells assessed as total growth inhibition incubated for 48 hrs by SRB assay; assay type: functional
# CAKI-1 = assay: Anticancer activity against human CAKI-1 cells assessed as lethality incubated for 48 hrs by SRB assay; assay type: functional; conditions: read-out: LC50 (the source's name)
# Jurkat [13] = assay: Induction of morphological changes in human Jurkat cells assessed as chromatin condensation incubated for 24 hrs by Hoechst 33258 and propidium iodide staining based fluorescence microscopy; assay type: functional, cell-based
# SK-MEL-28 = assay: Anticancer activity against human SK-MEL-28 cells assessed as lethality incubated for 48 hrs by SRB assay; assay type: functional; conditions: read-out: LC50 (the source's name)
# [14] = Selectivity index, ratio of GI50 for human HaCaT cells to GI50 for human U-251 cells; assay type: toxicity; conditions: HaCaT cells versus U-251 cells, read-out: RatioGI50
# RPMI-8226 = assay: Anticancer activity against human RPMI-8226 cells assessed as growth inhibition incubated for 48 hrs by SRB assay; assay type: functional
# Malme-3M [15] = assay: Anticancer activity against human Malme-3M cells assessed as lethality incubated for 48 hrs by SRB assay; assay type: functional; conditions: read-out: LC50 (the source's name)
# NCI-H226 = assay: Anticancer activity against human NCI-H226 cells assessed as lethality incubated for 48 hrs by SRB assay; assay type: functional; conditions: read-out: LC50 (the source's name)
# KM12 = assay: Anticancer activity against human KM12 cells assessed as growth inhibition incubated for 48 hrs by SRB assay; assay type: functional
# MDA-MB-468 = assay: Anticancer activity against human MDA-MB-468 cells assessed as growth inhibition incubated for 48 hrs by SRB assay; assay type: functional
# SK-OV-3 = assay: Anticancer activity against human SK-OV-3 cells assessed as lethality incubated for 48 hrs by SRB assay; assay type: functional; conditions: read-out: LC50 (the source's name)
# Jurkat [16] = assay: Induction of morphological changes in human Jurkat cells assessed as chromatin topology incubated for 24 hrs by Hoechst 33258 and propidium iodide staining based fluorescence microscopy; assay type: functional, cell-based
# TK-10 [17] = assay: Anticancer activity against human TK-10 cells assessed as total growth inhibition incubated for 48 hrs by SRB assay; assay type: functional
# HeLa = assay: Anticancer activity against human HeLa cells assessed as cell growth inhibition incubated for 72 hrs by MTT assay; assay type: functional
# A549 [18] = assay: Anticancer activity against human A549 cells assessed as cell growth inhibition incubated for 72 hrs by MTT assay; assay type: functional
# T47D = assay: Anticancer activity against human T47D cells assessed as total growth inhibition incubated for 48 hrs by SRB assay; assay type: functional
# HL-60 [19] = assay: Anticancer activity against human HL-60 cells assessed as lethality incubated for 48 hrs by SRB assay; assay type: functional; conditions: read-out: LC50 (the source's name)
# NCI-H23 = assay: Anticancer activity against human NCI-H23 cells assessed as total growth inhibition incubated for 48 hrs by SRB assay; assay type: functional
# [20] = Selectivity index, ratio of GI50 for human HaCaT cells to GI50 for human HCT-116 cells; assay type: toxicity; conditions: HaCaT cells versus HCT-116 cells, read-out: RatioGI50
# OVCAR-4 = assay: Anticancer activity against human OVCAR-4 cells assessed as growth inhibition incubated for 48 hrs by SRB assay; assay type: functional
# UO-31 [21] = assay: Anticancer activity against human UO-31 cells assessed as lethality incubated for 48 hrs by SRB assay; assay type: functional; conditions: read-out: LC50 (the source's name)
smiles,measurement,setting,value
O=C1CC(N2C(=O)/C(=C/C(Cl)=C/c3ccc([N+](=O)[O-])cc3)SC2=S)C(=O)N1c1ccc(Cl)cc1 (stereo unspecified),GI50,UACC-62,1.77 µM
same,CC50,A549 [1],> 100 µM
same,GI50,HL-60 [2],1.45 µM
same,CC50,SK-MEL-2,> 100 µM
same,GI50,OVCAR-3,0.721 µM
same,GI50,NCI-H522,1.73 µM
same,TGI,HCC 2998,3.03 µM
same,CC50,SN12C,> 100 µM
same,GI50,MDA-MB-231 [3],3.75 µM
same,Activity,Jurkat [4],Active
same,GI50,SF-268,3.07 µM
same,GI50,MOLT-4,0.596 µM
same,GI50,HT-29,0.632 µM
same,TGI,HCT-116,3.04 µM
same,GI50,Malme-3M [5],3.09 µM
same,GI50,UACC-257,2.92 µM
same,TGI,HOP-62,5.5 µM
same,GI50,UO-31 [6],1.07 µM
same,TGI,RXF 393,2.72 µM
same,Activity,Jurkat [7],Active
same,CC50,TK-10 [8],> 100 µM
same,GI50,COLO 205,1.4 µM
same,selectivity ratio,[9],10.7
same,Activity,Lymphocyte,Toxic
same,GI50 at 48 h,[10],28.9 µM
same,CC50,NCI/ADR-RES,> 100 µM
same,selectivity ratio,[11],29.4
same,TGI,MDA-MB-231 [12],47.8 µM
same,CC50,CAKI-1,9.52 µM
same,Activity,Jurkat [13],Active
same,CC50,SK-MEL-28,9.41 µM
same,selectivity ratio,[14],11.2
same,GI50,RPMI-8226,0.303 µM
same,CC50,Malme-3M [15],> 100 µM
same,CC50,NCI-H226,> 100 µM
same,GI50,KM12,1.96 µM
same,GI50,MDA-MB-468,1.33 µM
same,CC50,SK-OV-3,> 100 µM
same,Activity,Jurkat [16],Active
same,TGI,TK-10 [17],8.63 µM
same,GI50,HeLa,6.65 µM
same,GI50,A549 [18],63.9 µM
same,TGI,T47D,6.34 µM
same,CC50,HL-60 [19],> 100 µM
same,TGI,NCI-H23,4.31 µM
same,selectivity ratio,[20],10.9
same,GI50,OVCAR-4,5.55 µM
same,CC50,UO-31 [21],> 100 µM
O=C1CC(N2C(=O)/C(=C/C(Cl)=C/c3ccc([N+](=O)[O-])cc3)SC2=S)C(=O)N1c1ccc(O)cc1 (stereo unspecified),GI50,UACC-62,1.67 µM
same,CC50,A549 [1],50.8 µM
same,GI50,HL-60 [2],2.44 µM
same,CC50,SK-MEL-2,54.3 µM
same,GI50,OVCAR-3,0.604 µM
same,GI50,NCI-H522,1.86 µM
same,TGI,HCC 2998,2.92 µM
same,CC50,SN12C,24.6 µM
same,GI50,MDA-MB-231 [3],2.14 µM
same,Activity,Jurkat [4],Active
same,GI50,SF-268,2.43 µM
same,GI50,MOLT-4,0.534 µM
same,GI50,HT-29,0.847 µM
same,TGI,HCT-116,2.14 µM
same,GI50,Malme-3M [5],2.31 µM
same,GI50,UACC-257,2.48 µM
same,TGI,HOP-62,6.63 µM
same,GI50,UO-31 [6],1.35 µM
same,TGI,RXF 393,3.22 µM
same,Activity,Jurkat [7],Active
same,CC50,TK-10 [8],7.46 µM
same,GI50,COLO 205,1.83 µM
same,selectivity ratio,[9],13
same,Activity,Lymphocyte,Toxic
same,GI50 at 48 h,[10],51.2 µM
same,CC50,NCI/ADR-RES,> 100 µM
same,selectivity ratio,[11],56.6
same,TGI,MDA-MB-231 [12],5.06 µM
same,CC50,CAKI-1,5.12 µM
same,Activity,Jurkat [13],Active
same,CC50,SK-MEL-28,9.05 µM
same,selectivity ratio,[14],66.9
same,GI50,RPMI-8226,0.295 µM
same,CC50,Malme-3M [15],21 µM
same,CC50,NCI-H226,50.3 µM
same,GI50,KM12,1.83 µM
same,GI50,MDA-MB-468,1.87 µM
same,CC50,SK-OV-3,32 µM
same,Activity,Jurkat [16],Active
same,TGI,TK-10 [17],3.79 µM
same,GI50,HeLa,6.13 µM
same,GI50,A549 [18],7.25 µM
same,TGI,T47D,15.8 µM
same,CC50,HL-60 [19],> 100 µM
same,TGI,NCI-H23,3.52 µM
same,selectivity ratio,[20],16.3
same,GI50,OVCAR-4,5.13 µM
same,CC50,UO-31 [21],5.78 µM
